# Patent publication EP0882734B1, “5'-Deoxy-cytidine derivatives” (F. Hoffmann-La Roche AG, priority 1997, dated 1998)
# Marks after values point to notes of the source that are not given here.
# Experiments:
# [1] = mouse, in vivo, 420 min
# Procedure: In this study, fluoropyrimidines, such as 5-FU, doxifluridine [5'-deoxy-5-fluorouridine] and capecitabine [5'-deoxy-5-fluoro-N^4-(n-pentyloxycarbonyl)cytidine], were given to BALB/c nude mice bearing the human gastric cancer xenograft MKN28 in combination with either compound A or 5-EU. Then, 5-FU levels in the plasma and tumor tissues were measured at 0.25, 0.5, 2, 4 and 7 hours after each fluoropyrimidine administration (n = 3 mice), and 5-FU AUC was calculated. […]
# [2] = tested on: human prostate cancer xenograft PC-3; test: Enhancement of capecitabine antitumor activity in PC-3 xenograft; conditions: oral
# Procedure: Compound A of Example 6 was examined for its activity to enhance the efficacy of capecitabine in BALB/c nude mice bearing the human prostate cancer xenograft PC-3. Compound A and capecitabine were orally given simultaneously or sequentially 5 successive days per week for 3 weeks starting on day 53 after the tumor inoculation when the tumor becomes palpable. On day 75, tumor volume gain and the percentage of the tumor growth inhibition were calculated.
# DPD [3] = biological target: T1, DPD (Homo sapiens, UniProt Q12882); test: DPD activity in liver and tumor tissues of PC-3 xenograft mice after administration; format: in vivo, BALB/c nude mice; conditions: Tumor (PC-3), Compound A 0.5 mmol/kg, 5-EU 0.05 µmol/kg
# T1 construct: The liver and tumor tissues were resected out from each group of three mice; from tissue; host or cells: liver (mouse host) and PC-3 tumour xenograft tissue from BALB/c nude mice
# T1 sequence (Q12882 4-1025): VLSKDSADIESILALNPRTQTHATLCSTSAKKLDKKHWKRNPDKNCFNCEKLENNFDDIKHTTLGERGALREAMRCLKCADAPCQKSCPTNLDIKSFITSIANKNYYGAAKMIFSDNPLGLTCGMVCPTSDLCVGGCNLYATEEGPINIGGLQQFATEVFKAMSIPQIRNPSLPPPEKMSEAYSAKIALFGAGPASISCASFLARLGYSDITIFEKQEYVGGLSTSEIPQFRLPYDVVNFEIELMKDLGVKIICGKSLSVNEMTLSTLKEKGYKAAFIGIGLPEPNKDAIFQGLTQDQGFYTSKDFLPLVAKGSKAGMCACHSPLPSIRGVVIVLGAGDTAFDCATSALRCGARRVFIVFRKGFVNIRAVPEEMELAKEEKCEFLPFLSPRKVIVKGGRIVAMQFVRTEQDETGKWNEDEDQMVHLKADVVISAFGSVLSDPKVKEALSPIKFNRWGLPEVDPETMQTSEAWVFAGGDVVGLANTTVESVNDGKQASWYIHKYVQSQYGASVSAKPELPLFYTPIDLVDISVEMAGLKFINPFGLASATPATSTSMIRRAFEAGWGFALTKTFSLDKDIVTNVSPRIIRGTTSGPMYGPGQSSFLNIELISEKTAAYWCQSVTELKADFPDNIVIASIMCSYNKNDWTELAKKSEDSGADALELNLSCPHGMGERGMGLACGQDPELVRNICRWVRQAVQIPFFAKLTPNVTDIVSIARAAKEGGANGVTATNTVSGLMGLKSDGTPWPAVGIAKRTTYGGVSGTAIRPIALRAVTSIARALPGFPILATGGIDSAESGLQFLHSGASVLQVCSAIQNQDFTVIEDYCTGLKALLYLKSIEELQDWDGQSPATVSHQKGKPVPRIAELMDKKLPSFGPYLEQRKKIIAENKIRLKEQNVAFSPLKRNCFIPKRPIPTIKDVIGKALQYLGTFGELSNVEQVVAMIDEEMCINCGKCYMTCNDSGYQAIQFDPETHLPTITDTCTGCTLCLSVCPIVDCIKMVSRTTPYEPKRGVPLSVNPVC
# Procedure: (§1) The liver and tumor tissues were resected out from each group of three mice at 2 and 8 hours after the administration of the Compound A (0.5 mmol/kg) and 5-EU ([…]). DPD activity in these tissues was then measured as described elsewhere (Naguib et al., Cancer Research 45, 5405-5412, 1985). […] Table 1. Inhibition of DPD activity by Compound A of Example 6
# DPD [4] = biological target: T2, DPD (Mus musculus, UniProt Q8CHR6); test: as above; format: in vivo, BALB/c nude mice; conditions: Liver, Compound A 0.5 mmol/kg, 5-EU 0.05 µmol/kg
# T2 construct: The liver and tumor tissues were resected out from each group of three mice; from tissue; host or cells: liver (mouse host) and PC-3 tumour xenograft tissue from BALB/c nude mice
# T2 sequence (Q8CHR6 1-1025): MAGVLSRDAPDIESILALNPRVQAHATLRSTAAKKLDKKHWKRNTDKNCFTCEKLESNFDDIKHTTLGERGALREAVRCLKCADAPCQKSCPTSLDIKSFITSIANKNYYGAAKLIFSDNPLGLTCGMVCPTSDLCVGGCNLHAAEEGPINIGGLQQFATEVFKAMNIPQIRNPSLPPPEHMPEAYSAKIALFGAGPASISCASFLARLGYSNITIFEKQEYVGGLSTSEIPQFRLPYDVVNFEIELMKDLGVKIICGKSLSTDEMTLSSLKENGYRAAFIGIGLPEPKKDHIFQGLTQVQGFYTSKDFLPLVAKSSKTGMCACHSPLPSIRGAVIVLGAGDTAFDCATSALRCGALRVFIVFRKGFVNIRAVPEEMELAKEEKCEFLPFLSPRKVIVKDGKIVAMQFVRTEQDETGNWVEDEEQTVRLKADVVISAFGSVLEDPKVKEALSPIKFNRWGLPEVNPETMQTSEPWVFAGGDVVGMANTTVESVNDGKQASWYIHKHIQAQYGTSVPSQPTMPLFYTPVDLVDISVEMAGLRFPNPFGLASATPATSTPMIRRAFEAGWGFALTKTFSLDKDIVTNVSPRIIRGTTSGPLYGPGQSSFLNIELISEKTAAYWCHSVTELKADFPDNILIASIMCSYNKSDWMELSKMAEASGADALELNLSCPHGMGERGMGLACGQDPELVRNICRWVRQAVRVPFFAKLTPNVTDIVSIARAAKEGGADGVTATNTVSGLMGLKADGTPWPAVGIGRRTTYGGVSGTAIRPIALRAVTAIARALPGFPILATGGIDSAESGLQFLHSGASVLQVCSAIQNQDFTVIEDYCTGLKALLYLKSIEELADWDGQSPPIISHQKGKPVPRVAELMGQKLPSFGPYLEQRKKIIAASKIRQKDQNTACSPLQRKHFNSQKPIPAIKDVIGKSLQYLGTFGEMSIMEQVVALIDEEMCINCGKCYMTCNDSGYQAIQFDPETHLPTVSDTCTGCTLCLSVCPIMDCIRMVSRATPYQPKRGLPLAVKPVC
# Procedure: as §1
# [5] = Cytotoxicity of compound A itself (data not shown)
# [6] = 2 hr after administration, control 31
# [7] = 8 hr after administration, control 29
# [8] = 2 hr after administration, control 288
# [9] = 8 hr after administration, control 162
# [10] = Capecitabine 1.0 mmol/kg/d + Compound A 1.0 µmol/kg/d given one hour prior to capecitabine
# [11] = Capecitabine 1.0 mmol/kg/d + Compound A 1.0 µmol/kg/d given simultaneously
smiles,measurement,setting,value
"C[C@H]1O[C@@H](n2cc(F)c(=O)[nH]c2=O)[C@H](O)[C@@H]1O [Doxifluridine, 5'-deoxy-5-fluorouridine]",5-FU AUC Plasma,[1],2.6 nmolohr/mL
same,5-FU AUC Tumor,[1],8.0 nmolohr/mL
"CCCCCOC(=O)Nc1nc(=O)n([C@@H]2O[C@H](C)[C@@H](O)[C@H]2O)cc1F [Capecitabine, 5'-deoxy-5-fluoro-N^4-(n-pentyloxycarbonyl)cytidine]",5-FU AUC Tumor,[1],30 nmolohr/mL
same,Tumor growth inhibition (%) Day 75,"[2]; Capecitabine 1.0 mmol/kg/d alone, 5 successive days per week for 3 weeks",23%
same,Tumor volume change (mm^3) Day 53-75,"[2]; Capecitabine 1.0 mmol/kg/d alone, 5 successive days per week for 3 weeks, control 981",757 mm^3
same,Body weight change (g) Day 75,"[2]; Capecitabine 1.0 mmol/kg/d alone, control -3.6",-3.4 g
"C#Cc1c[nH]c(=O)[nH]c1=O [Example 5-EU, 5-ethynyluracil]",DPD activities,DPD [3]; [6],17 pmol/mg protein/min
same,DPD activities,DPD [3]; [7],13 pmol/mg protein/min
same,DPD activities,DPD [4]; [8],46 pmol/mg protein/min
same,DPD activities,DPD [4]; [9],83 pmol/mg protein/min
"C#Cc1cn([C@@H]2O[C@H](C)[C@@H](O)[C@H]2O)c(=O)nc1NC(=O)OCCCCC [Compound A, 5'-deoxy-5-ethynyl-N^4-(n-pentyloxycarbonyl)cytidine]",DPD activities,DPD [3]; [6],9 pmol/mg protein/min
same,DPD activities,DPD [3]; [7],9 pmol/mg protein/min
same,DPD activities,DPD [4]; [8],177 pmol/mg protein/min
same,DPD activities,DPD [4]; [9],326 pmol/mg protein/min
same,Body weight change (g) Day 75,[2]; [10],-0.3 g
same,Tumor growth inhibition (%) Day 75,[2]; [10],80%
same,Tumor volume change (mm^3) Day 53-75,"[2]; Capecitabine 1.0 mmol/kg/d + Compound A 1.0 µmol/kg/d given one hour prior to capecitabine, p < 0.05 vs control",201* mm^3
same,Body weight change (g) Day 75,[2]; [11],-1.8 g
same,Tumor growth inhibition (%) Day 75,[2]; [11],67%
same,Tumor volume change (mm^3) Day 53-75,"[2]; Capecitabine 1.0 mmol/kg/d + Compound A 1.0 µmol/kg/d given simultaneously, p < 0.05 vs control",323* mm^3
same,cytotoxicity,[5],not cytotoxic
